Experimental data as given in ChEMBL document CHEMBL1201862, “PubChem BioAssay data set” (2004).
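A five-concentration, 48-hour dose response in 96-well plates underlies each endpoint, interpolated linearly between surrounding concentrations. At the GI50, growth is halved.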 Activity calls are given as the source filed them. No stated cut-off is given here; in the data, active = GI50 up to about 1.1 µM and inactive = higher.

Experiments:
Experiment in all cases: NCI tumour cell line growth inhibition, 48 h
[1] = test system: OVCAR-5
[2] = test system: SK-OV-3
[3] = test system: UACC-62
[4] = test system: HT-29
[5] = test system: M14
[6] = test system: SK-MEL-28
[7] = test system: SK-MEL-5
[8] = test system: CAKI-1
[9] = test system: HOP-92
[10] = test system: A498
[11] = test system: EKVX
[12] = test system: HCC 2998
[13] = test system: OVCAR-8
[14] = test system: NCI/ADR-RES
[15] = test system: NCI-H23
[16] = test system: BT-549
[17] = test system: MDA-MB-231
[18] = test system: OVCAR-3
[19] = test system: UO-31
[20] = test system: COLO 205
[21] = test system: A549
[22] = test system: HOP-62
[23] = test system: LOX IMVI
[24] = test system: SF-268
[25] = test system: HL-60
[26] = test system: 786-0
[27] = test system: MOLT-4
[28] = test system: UACC-257
[29] = test system: TK-10
[30] = test system: MCF7
[31] = test system: OVCAR-4
[32] = test system: SN12C
[33] = test system: U-251
[34] = test system: SW-620
[35] = test system: Malme-3M
[36] = test system: PC-3
[37] = test system: MDA-N
[38] = test system: SF-539
[39] = test system: NCI-H522
[40] = test system: SK-MEL-2
[41] = test system: SF-295
[42] = test system: T47D
[43] = test system: KM12
[44] = test system: ACHN
[45] = test system: MDA-MB-435
[46] = test system: Hs-578T
[47] = test system: NCI-H226
[48] = test system: RXF 393
[49] = test system: RPMI-8226
[50] = test system: HCT-15
[51] = test system: SNB-75
[52] = test system: K562
[53] = test system: CCRF-CEM
[54] = test system: DU-145
[55] = test system: HCT-116
[56] = test system: NCI-H460
[57] = test system: SNB-19
[58] = test system: SR
[59] = test system: IGROV-1

## COc1ccccc1NC(=S)N/N=C/c1ccccn1
[1]
  GI50: 0.288 µM (active)
[2]
  GI50: 0.446 µM (active)
[3]
  GI50: 0.466 µM (active)
[4]
  GI50: < 0.01 µM (active)
[5]
  GI50: 0.0692 µM (active)
[6]
  GI50: 1.56 µM (inactive)
[7]
  GI50: 0.252 µM (active)
[8]
  GI50: 0.0817 µM (active)
[9]
  GI50: 1.26 µM (inactive)
[10]
  GI50: 0.255 µM (active)
[11]
  GI50: 0.293 µM (active)
[12]
  GI50: 2.37 µM (inactive)
[13]
  GI50: 0.131 µM (active)
[14]
  GI50: 0.0253 µM (active)
[15]
  GI50: 0.0746 µM (active)
[16]
  GI50: 1.77 µM (inactive)
[17]
  GI50: < 0.0166 µM (active)
[18]
  GI50: < 0.015 µM (active)
[19]
  GI50: 0.296 µM (active)
[20]
  GI50: 0.0352 µM (active)
[21]
  GI50: 0.564 µM (active)
[22]
  GI50: 0.247 µM (active)
[23]
  GI50: 0.0927 µM (active)
[24]
  GI50: 0.191 µM (active)
[25]
  GI50: 0.0214 µM (active)
[26]
  GI50: 0.157 µM (active)
[27]
  GI50: 0.0115 µM (active)
[28]
  GI50: < 0.0318 µM (active)
[29]
  GI50: 0.367 µM (active)
[30]
  GI50: 0.0504 µM (active)
[31]
  GI50: 0.619 µM (active)
[32]
  GI50: 0.74 µM (active)
[33]
  GI50: 0.12 µM (active)
[34]
  GI50: 0.124 µM (active)
[35]
  GI50: 0.193 µM (active)
[36]
  GI50: 0.054 µM (active)
[37]
  GI50: 1.29 µM (inactive)
[38]
  GI50: 0.91 µM (active)
[39]
  GI50: < 0.0157 µM (active)
[40]
  GI50: 2.54 µM (inactive)
[41]
  GI50: 0.621 µM (active)
[42]
  GI50: 0.0867 µM (active)
[43]
  GI50: 0.597 µM (active)
[44]
  GI50: 0.11 µM (active)
[45]
  GI50: 1.61 µM (inactive)
[46]
  GI50: 14.3 µM (inactive)
[47]
  GI50: 2.12 µM (inactive)
[48]
  GI50: 10.9 µM (inactive)
[49]
  GI50: 0.0658 µM (active)
[50]
  GI50: 0.227 µM
[51]
  GI50: 3.37 µM (inactive)
[52]
  GI50: < 0.0187 µM (active)
[53]
  GI50: 0.276 µM (active)
[54]
  GI50: 1.88 µM (inactive)
[55]
  GI50: < 0.0204 µM (active)
[56]
  GI50: 0.495 µM (active)
[57]
  GI50: 4.17 µM (inactive)
[58]
  GI50: 0.71 µM (active)

## CC(C)(C)c1cc(C(=O)/C=C/c2ccc(C(=O)O)cc2)cc(C(C)(C)C)c1
[1]
  GI50: 4.9 µM (inactive)
[2]
  GI50: 2.87 µM (inactive)
[3]
  GI50: 1.77 µM (inactive)
[4]
  GI50: 3.05 µM (inactive)
[5]
  GI50: 1.5 µM (inactive)
[6]
  GI50: 2.38 µM (inactive)
[7]
  GI50: 3.99 µM (inactive)
[8]
  GI50: 3.86 µM (inactive)
[9]
  GI50: 6.68 µM (inactive)
[10]
  GI50: 1.92 µM (inactive)
[11]
  GI50: 3.19 µM (inactive)
[12]
  GI50: 1.82 µM (inactive)
[13]
  GI50: 2.44 µM (inactive)
[14]
  GI50: 2.42 µM (inactive)
[16]
  GI50: 2.21 µM (inactive)
[17]
  GI50: 3.87 µM (inactive)
[18]
  GI50: 2.35 µM (inactive)
[19]
  GI50: 5.47 µM (inactive)
[20]
  GI50: 2.12 µM (inactive)
[21]
  GI50: 2.07 µM (inactive)
[22]
  GI50: 2.32 µM (inactive)
[23]
  GI50: 3.2 µM (inactive)
[24]
  GI50: 2.18 µM (inactive)
[25]
  GI50: 3.51 µM (inactive)
[26]
  GI50: 4.09 µM (inactive)
[27]
  GI50: 2.37 µM (inactive)
[28]
  GI50: 10.1 µM (inactive)
[29]
  GI50: 3.37 µM (inactive)
[30]
  GI50: 3.87 µM (inactive)
[31]
  GI50: 6.14 µM (inactive)
[32]
  GI50: 2.11 µM (inactive)
[33]
  GI50: 3.13 µM (inactive)
[34]
  GI50: 3.42 µM (inactive)
[35]
  GI50: 1.42 µM (inactive)
[36]
  GI50: 4.48 µM (inactive)
[37]
  GI50: 2.32 µM (inactive)
[38]
  GI50: 1.36 µM (inactive)
[39]
  GI50: 4.34 µM (inactive)
[40]
  GI50: 2.94 µM (inactive)
[41]
  GI50: 2.58 µM (inactive)
[42]
  GI50: 5.56 µM (inactive)
[43]
  GI50: 2.4 µM (inactive)
[44]
  GI50: 4 µM (inactive)
[45]
  GI50: 2.16 µM (inactive)
[46]
  GI50: 1.42 µM (inactive)
[47]
  GI50: 1.53 µM (inactive)
[48]
  GI50: 1.5 µM (inactive)
[49]
  GI50: 1.16 µM (inactive)
[50]
  GI50: 1.91 µM
[51]
  GI50: 0.885 µM (active)
[52]
  GI50: 3.21 µM (inactive)
[53]
  GI50: 2.91 µM (inactive)
[59]
  GI50: 3.8 µM (inactive)
[54]
  GI50: 2.77 µM (inactive)
[55]
  GI50: 2.73 µM (inactive)
[56]
  GI50: 1.94 µM (inactive)
[57]
  GI50: 2.36 µM (inactive)
[58]
  GI50: 2.4 µM (inactive)
